Data reported in US8952162B2, “Triazolopyridines as phosphodiesterase inhibitors for treatment of dermal diseases” (Leo Pharma A/S, priority 2008, dated 2015).

biological target: Human recombinant PDE4 (Genbank accession no NM—006203) (Homo sapiens, UniProt Q08499); assay: PDE4 assay (SPA, cAMP cleavage); assay type: biochemical; settings: Example 52; human recombinant PDE4, 1 hour incubation, cAMP 1×10^-5M, test compound up to 10 μM; read-out: PDE4 IC50 range
Procedure: At the end of the incubation, the cleavage of the substrate was evaluated by the binding of the AMP product to SPA beads, which generate chemoluminescence when bound to the radioactive tracer. The AMP product inhibited the binding of the radioactive tracer to the beads, and the luminescent signal was competed.

Chain of Human recombinant PDE4 (Genbank accession no NM—006203) (Q08499 1-673 isoform Q08499-2): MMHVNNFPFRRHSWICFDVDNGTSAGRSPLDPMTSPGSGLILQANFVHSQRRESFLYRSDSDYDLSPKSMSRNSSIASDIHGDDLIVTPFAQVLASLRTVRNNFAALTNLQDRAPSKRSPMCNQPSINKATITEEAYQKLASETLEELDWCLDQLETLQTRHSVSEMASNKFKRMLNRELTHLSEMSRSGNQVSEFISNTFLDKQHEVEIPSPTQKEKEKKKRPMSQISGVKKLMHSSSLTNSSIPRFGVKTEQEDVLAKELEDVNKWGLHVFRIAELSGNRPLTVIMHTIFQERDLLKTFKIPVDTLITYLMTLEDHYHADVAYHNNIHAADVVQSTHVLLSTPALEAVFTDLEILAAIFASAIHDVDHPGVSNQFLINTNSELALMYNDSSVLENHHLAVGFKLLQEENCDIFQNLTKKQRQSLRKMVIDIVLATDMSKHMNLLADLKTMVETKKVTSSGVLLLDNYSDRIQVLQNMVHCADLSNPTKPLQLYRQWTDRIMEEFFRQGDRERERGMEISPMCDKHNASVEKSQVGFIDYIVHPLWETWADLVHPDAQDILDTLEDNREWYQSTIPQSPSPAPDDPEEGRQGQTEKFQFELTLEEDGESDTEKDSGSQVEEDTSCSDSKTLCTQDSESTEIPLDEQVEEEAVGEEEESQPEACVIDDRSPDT

| IC50 | Compound |
| --- | --- |
| > 1000 nM | COc1ccc(-c2ccc(CNS(C)(=O)=O)cc2)n2nc(C3CC3)nc12 [Compound 130, N-[4-(2-Cyclopropyl-8-methoxy-[1,2,4]triazolo[1,5-a]pyridin-5-yl)-benzyl]-methanesulfonamide] |
| > 1000 nM | COc1ccc(-c2ccc(S(=O)(=O)N3CCOCC3)cc2)n2nc(C3CC3)nc12 [Compound 128, 2-Cyclopropyl-8-methoxy-5-[4-(morpholine-4-sulfonyl)-phenyl]-[1,2,4]triazolo[1,5-a]pyridine] |
| < 500 nM | COc1ccc(-c2ccc(F)cc2)n2nc(C3CC3)nc12 [Compound 131, 2-Cyclopropyl-5-(4-fluoro-phenyl)-8-methoxy-[1,2,4]triazolo[1,5-a]pyridine] |
| > 1000 nM | COc1ccc(-c2ccc(CNC(C)=O)cc2)n2nc(C3CC3)nc12 [Compound 129, N-[4-(2-Cyclopropyl-8-methoxy-[1,2,4]triazolo[1,5-a]pyridin-5-yl)-benzyl]-acetamide] |
| < 500 nM | COc1ccc(-c2cccc(OC(F)(F)F)c2)n2nc(C3CC3)nc12 [Compound 108, 2-Cyclopropyl-8-methoxy-5-(3-trifluoromethoxy-phenyl)-[1,2,4]triazolo[1,5-a]pyridine] |
| > 1000 nM | COc1ccc(-c2ccc(S(C)(=O)=O)cc2)n2nc(C3CC3)nc12 [Compound 120, 2-Cyclopropyl-5-(4-methanesulfonyl-phenyl)-8-methoxy-[1,2,4]triazolo[1,5-a]pyridine] |
| 500 to 1000 nM | COc1ccc(-c2ccc(Cl)cc2Cl)n2nc(C3CC3)nc12 [Compound 127, 2-Cyclopropyl-5-(2,4-dichloro-phenyl)-8-methoxy-[1,2,4]triazolo[1,5-a]pyridine] |
| > 1000 nM | COCCOc1ccc(-c2ccc(OC)c3nc(C4CC4)nn23)cc1 [Compound 122, 2-Cyclopropyl-8-methoxy-5-[4-(2-methoxy-ethoxy)-phenyl]-[1,2,4]triazolo[1,5-a]pyridine] |

| Compound | IC50 |
| --- | --- |
| CCCCOc1cccc(-c2ccc(OC)c3nc(C4CC4)nn23)c1 [Compound 124, 5-(3-Butoxy-phenyl)-2-cyclopropyl-8-methoxy-[1,2,4]triazolo[1,5-a]pyridine] | < 500 nM |

same assay, conditions: Example 53; PDE4 assay as in example 52; read-out: PDE4 IC50 range

| IC50 | Compound |
| --- | --- |
| < 500 nM | C=C(C)C(=O)OCCNC(=O)C1(c2nc3c(OC)ccc(-c4cccc(C#N)c4)n3n2)CC1 [Compound 201, 2-Methyl-acrylic acid 2-({1-[5-(3-cyano-phenyl)-8-methoxy-[1,2,4]triazolo[1,5-a]pyridin-2-yl]-cyclopropanecarbonyl}-amino)-ethyl ester] |
| < 500 nM | COc1cc(-c2ccc(OC)c3nc(C4(C(=O)NC(C)C)CC4)nn23)ccc1C#N [Compound 175, 1-[5-(4-Cyano-3-methoxy-phenyl)-8-methoxy-[1,2,4]triazolo[1,5-a]pyridin-2-yl]-cyclopropanecarboxylic acid isopropylamide] |
| < 500 nM | COc1ccc(-c2ccc(C#N)cc2)n2nc(C3(C(=O)NCc4cccnc4)CC3)nc12 [Compound 203, 1-[5-(4-Cyano-phenyl)-8-methoxy-[1,2,4]triazolo[1,5-a]pyridin-2-yl]-cyclopropanecarboxylic acid (pyridin-3-ylmethyl)-amide] |
| 500 to 1000 nM | COc1ccc(C2=NNC(=O)CC2C)n2nc(C3CC3)nc12 (centres unmarked) [Compound 158, 6-(2-Cyclopropyl-8-methoxyl-[1,2,4]triazolo[1,5-a]pyridin-5-yl)-5-methyl-4,5-dihydro-2H-pyridazin-3-one] |
| > 1000 nM | COc1ccc(-c2ccc(C#N)cc2)n2nc(C3(C(=O)N4CCOCC4)CC3)nc12 [Compound 205, 4-{8-Methoxy-2-[1-(morpholine-4-carbonyl)-cyclopropyl]-[1,2,4]triazolo[1,5-a]pyridin-5-yl}-benzonitrile] |
| < 500 nM | COc1ccc(-c2cccc(C(C)=O)c2)n2nc(C3(C(=O)NCc4ccccc4)CC3)nc12 [Compound 224, 1-[5-(3-Acetyl-phenyl)-8-methoxy-[1,2,4]triazolo[1,5-a]pyridin-2-yl]-cyclopropanecarboxylic acid benzylamide] |
| < 500 nM | COc1ccc(-c2cccc(C#N)c2)n2nc(C3(COCc4ccccc4)CC3)nc12 [Compound 153, 3-[2-(1-Benzyloxymethyl-cyclopropyl)-8-methoxy-[1,2,4]-triazolo[1,5-a]pyridin-5-yl]-benzonitrile] |
| < 500 nM | COc1ccc(-c2ccc(C#N)c(F)c2)n2nc(C3CC3)nc12 [Compound 165, 4-(2-Cyclopropyl-8-methoxyl-[1,2,4]-triazolo[1,5-a]pyridin-5-yl)-2-fluoro-benzonitrile] |
| < 500 nM | COc1ccc(-c2cccc3c2CCC3=O)n2nc(C3(C(=O)NC(C)C)CC3)nc12 [Compound 180, 1-[8-Methoxy-5-(1-oxo-indan-4-yl)-[1,2,4]triazolo[1,5-a]pyridin-2-yl]-cyclopropanecarboxylic acid isopropylamide] |
| < 500 nM | COc1ccc(-c2ccc3c(c2)COC3=O)n2nc(C3(C(=O)NCCS(C)(=O)=O)CC3)nc12 [Compound 269, 1-[8-Methoxy-5-(1-oxo-1,3-dihydro-isobenzofuran-5-yl)-[1,2,4]triazolo[1,5-a]pyridin-2-yl]-cyclopropanecarboxylic acid (2-methanesulfonyl-ethyl)-amide] |
| < 500 nM | COc1ccc(-c2ccc(C#N)cc2)n2nc(C3(C(=O)NCCN(C)S(C)(=O)=O)CC3)nc12 [Compound 220, 1-[5-(4-Cyano-phenyl)-8-methoxy-[1,2,4]triazolo[1,5-a]pyridin-2-yl]-cyclopropanecarboxylic acid [2-(methanesulfonyl-methyl-amino)-ethyl]-amide] |
| < 500 nM | COc1ccc(-c2cccc(C#N)c2)n2nc(C3(CNC(=O)OC4CCCC4)CC3)nc12 [Compound 155, {1-[5-(3-Cyano-phenyl)-8-methoxyl-[1,2,4]triazolo[1,5-a]pyridin-2-yl]-cyclopropylmethyl}-carbamic acid cyclopentyl ester] |
| < 500 nM | COc1cc(-c2ccc(OC)c3nc(C4CC4)nn23)ccc1C#N [Compound 166, 4-(2-Cyclopropyl-8-methoxy-[1,2,4]triazolo[1,5-a]pyridin-5-yl)-2-methoxy-benzonitrile] |
| < 500 nM | COc1ccc(-c2ccc(C#N)cc2)n2nc(C3(C(=O)NCCC(=O)N4CCOCC4)CC3)nc12 [Compound 218, 1-[5-(4-Cyano-phenyl)-8-methoxy-[1,2,4]triazolo[1,5-a]pyridin-2-yl]-cyclopropanecarboxylic acid (3-morpholin-4-yl-3-oxo-propyl)-amide] |
| 500 to 1000 nM | CCOC(=O)C1(c2nc3c(OC)ccc(-c4ccc(C#N)cc4)n3n2)CC1 [Compound 146, 1-[5-(4-Cyano-phenyl)-8-methoxy-[1,2,4]triazolo[1,5-a]pyridin-2-yl]-cyclopropanecarboxylic acid ethyl ester] |
| < 500 nM | COc1ccc(-c2ccc(C#N)cc2)n2nc(C3(C(=O)NCCNS(C)(=O)=O)CC3)nc12 [Compound 217, 1-[5-(4-Cyano-phenyl)-8-methoxy-[1,2,4]triazolo[1,5-a]pyridin-2-yl]-cyclopropanecarboxylic acid (2-methanesulfonylamino-ethyl)-amide] |
| < 500 nM | COc1ccc(-c2cccc(C(C)=O)c2)n2nc(C3(C(=O)NCCS(N)(=O)=O)CC3)nc12 [Compound 225, 1-[5-(3-Acetyl-phenyl)-8-methoxy-[1,2,4]triazolo[1,5-a]pyridin-2-yl]-cyclopropanecarboxylic acid (2-sulfamoyl-ethyl)-amide] |
